In ChEMBL document CHEMBL5550106, “Recent advances in the exploration of oxazolidinone scaffolds from compound development to antibacterial agents and other bioactivities” (Eur J Med Chem, 2024) one finds MIC and CLint scaled data, which are given here for 20 molecules.

Values after ≈ are worked out from the molar mass of the structure shown. Some results are limits rather than exact numbers.

Data set [1] concerns Staphylococcus epidermidis. Nature of the data set: Antibacterial activity against Methicillin-resistant Staphylococcus epidermidis assessed as bacterial growth inhibition. The format is functional.
Data set [2] concerns Staphylococcus aureus. Nature of the data set: Antibacterial activity against methicillin-resistant Staphylococcus aureus assessed as reduction in microbial growth by CLSI based broth microdilution method. The data set is classed as functional. (Broth dilution looks for growth in wells or tubes with falling amounts of substance.)
Data set [3] deals with Staphylococcus aureus. As to the kind of experiment: Antibacterial activity against Linezolid-resistant Staphylococcus aureus assessed as reduction in bacterial growth. The format is functional.
Data set [4] has as its system Staphylococcus epidermidis. As to the kind of experiment: Antibacterial activity against Staphylococcus epidermidis assessed as reduction in microbial growth after 24 hrs by CLSI based microdilution method. The data set is classed as functional.
In data set [5] the test system is Staphylococcus epidermidis. As to the kind of experiment: Antibacterial activity against linezolid-resistant Staphylococcus epidermidis assessed as reduction in bacterial growth. The data set is classed as functional.
The subject of data set [6] is Staphylococcus aureus. As to the kind of experiment: Antibacterial activity against Staphylococcus aureus assessed as reduction in microbial growth by CLSI based broth microdilution method. The data set is classed as functional.
Data set [7] can be described thus: Intrinsic clearance in mouse liver microsomes. The data set is classed as ADME, Microsome. The following applies: read-out: CLH.
Data set [8] has as its system Staphylococcus aureus. As to the kind of experiment: Antibacterial activity against methicillin-sensitive Staphylococcus aureus assessed as reduction in microbial growth by CLSI based broth microdilution method. The format is functional.
Data set [9] deals with Mycobacterium tuberculosis. As to the kind of experiment: Antibacterial activity against Mycobacterium tuberculosis H37Rv assessed as inhibition of bacterial growth. The data set is classed as functional.
The test system of data set [10] is Staphylococcus aureus. Nature of the data set: Antibacterial activity against Staphylococcus aureus HG001 assessed as reduction in bacterial cell growth incubated for 16 to 18 hrs by two-fold serial dilution method. The data set is classed as functional. The following applies: time 16-18 hrs.
Data set [11] has as its system Pseudomonas aeruginosa. Nature of the data set: Antibacterial activity against wild-type Pseudomonas aeruginosa PAO1 incubated for 24 hrs by broth microdilution method. The format is functional.
Data set [12] relates to Pseudomonas aeruginosa. As to the kind of experiment: Antibacterial activity against Pseudomonas aeruginosa PAO1 assessed as bacterial growth inhibition incubated for 24 hrs by microtiter plate reader analysis. The data set is classed as functional.
The test system of data set [13] is Haemophilus influenzae. As to the kind of experiment: Antibacterial activity against Haemophilus influenzae assessed as bacterial growth inhibition measured after 16 to 24 hrs by broth microdilution assay. The format is functional. The following applies: time 16-24 hrs.
Data set [14] relates to Staphylococcus epidermidis. As to the kind of experiment: Antibacterial activity against Methicillin-resistant Staphylococcus epidermidis assessed as inhibition of bacterial growth. The data set is classed as functional.
Data set [15] has as its system Staphylococcus aureus. Nature of the data set: Antibacterial activity against Methicillin-resistant Staphylococcus aureus assessed as inhibition of bacterial growth. The data set is classed as functional.
In data set [16] the test system is Escherichia coli. As to the kind of experiment: Antimicrobial activity against wild type Escherichia coli MG1655 assessed as inhibition of microbial growth. The format is functional.
In data set [17] the test system is Escherichia coli. As to the kind of experiment: Antibacterial activity against Escherichia coli MG1655 in presence of polymyxin B nonapeptide. The data set is classed as functional.
In data set [18] the test system is Escherichia coli. Nature of the data set: Antibacterial activity against efflux pump-efficient Escherichia coli MG1655 assessed as bacterial growth inhibition. The data set is classed as functional.
Data set [19] relates to Staphylococcus aureus. As to the kind of experiment: Antibacterial activity against Staphylococcus aureus assessed as reduction in bacterial growth incubated for 24 hrs by broth microdilution method. The data set is classed as functional.

As to `O=C1NC(=O)C2(Cc3cc(-c4ccc(N5C[C@H](CO)OC5=O)cc4F)ccc3N3CCOCC32)C(=O)N1` (some centres not stated), the MIC amounted to 2 µg/mL (≈ 3.92 µM) in [1]; 4 µg/mL in data set [2]; 32 µg/mL (≈ 62.7 µM) in data set [3]; 4 µg/mL in data set [4]; 32 µg/mL (≈ 62.7 µM) in data set [5]; 8 µg/mL in data set [6].

Turning to `COC(=O)NC[C@H]1CN(c2ccc(-c3ccc4c(c3)CC3(C(=O)NC(=O)NC3=O)C3COCCN43)c(F)c2)C(=O)O1` (some centres not stated), the MIC in [1] was 2 µg/mL (≈ 3.52 µM); in data set [2] it was 4 µg/mL; in [3] it was above 32 µg/mL; in [4] it was 4 µg/mL; in data set [5], 32 µg/mL (≈ 56.4 µM); in data set [6], 4 µg/mL.

In the case of `O=C1NC(=O)C2(Cc3cc(-c4ccc(N5C[C@H](CO)OC5=O)cc4F)ccc3N3CCCCC32)C(=O)N1` (some centres not stated), the MIC in [1] was below 1 µg/mL; in data set [2], 2 µg/mL; in [3], 16 µg/mL (≈ 31.5 µM); in [4] it was 2 µg/mL; in data set [5], 32 µg/mL (≈ 62.9 µM); in data set [6], 4 µg/mL.

As for `COC(=O)C1(C(=O)OC)Cc2cc(-c3ccc(N4C[C@H](CNC(C)=O)OC4=O)cc3F)ccc2N2CCOCC21` (some centres not stated), the MIC in data set [1] was 4 µg/mL (≈ 7.2 µM); in data set [2], 4 µg/mL; in data set [3], above 32 µg/mL; in [4], 4 µg/mL; in data set [5], 32 µg/mL (≈ 57.6 µM); in data set [6], 8 µg/mL.

For the molecule `CC(=O)NC[C@H]1CN(c2ccc(-c3ccc4c(c3)CC3(C(=O)NC(=O)NC3=O)C3CCCN43)c(F)c2)C(=O)O1` (some centres not stated), the MIC in data set [1] is below 1 µg/mL; in data set [2], 2 µg/mL; in data set [3], 16 µg/mL (≈ 29.9 µM); in [4], 2 µg/mL; in [5], 32 µg/mL (≈ 59.8 µM); in [6], 2 µg/mL.

Take `CC(=O)NC[C@H]1CN(c2ccc(-c3ccc4c(c3)CC3(C(=O)NC(=O)NC3=O)C3COCCN43)c(F)c2)C(=O)O1` (some centres not stated): the MIC turned out to be 2 µg/mL (≈ 3.63 µM) in [1]; 4 µg/mL in data set [2]; 32 µg/mL (≈ 58 µM) in [3]; 4 µg/mL in [4]; 32 µg/mL (≈ 58 µM) in [5]; 4 µg/mL in data set [6].

On to `CC(=O)NC[C@H]1CN(c2ccc(N3CCC(Nc4ccc(Br)cc4)CC3)c(F)c2)C(=O)O1`, for which, in data set [7], the CLint scaled came out at 3.46 mL/min/kg.

As to `C[C@H](NC(=O)[C@H](NC(=O)OCC1c2ccccc2-c2ccccc21)[C@H](C)OC(C)(C)C)[C@H]1CN(c2ccc(N3CCOCC3)c(F)c2)C(=O)O1`, the MIC in data set [8] is 6.25 µg/mL.

For `CC(C)(C)C[C@@H](NC(=O)OCC1c2ccccc2-c2ccccc21)C(=O)N[C@@H](Cc1ccccc1)[C@H]1CN(c2ccc(N3CCOCC3)c(F)c2)C(=O)O1`, in [9], the MIC came out at 1.9 µg/mL (≈ 2.59 µM).

Turning to `O=C1NC(=O)C2(Cc3cc(-c4ccc(N5C[C@H](CO)OC5=O)cc4F)ccc3C3CCCCC32)C(=O)N1` (some centres not stated), the MIC in data set [1] was below 1 µg/mL; in [2] it was 2 µg/mL; in data set [3], 32 µg/mL (≈ 63.1 µM); in [4], 2 µg/mL; in [5], 32 µg/mL (≈ 63.1 µM); in data set [6], 4 µg/mL.

On to `CC(=O)NCC1CN(c2ccc(N3CCN(C(=O)CCOCCOCn4cc(CNC(=O)C(CCCCNC(=O)c5cccc(O)c5O)NC(=O)c5cccc(O)c5O)nn4)CC3)c(F)c2)C(=O)O1` (configuration not stated), for which, in data set [10], the MIC is above 64 µM.

Take `CC(=O)NCC1CN(c2ccc(N3CCN(C(=O)COn4cc(CNC(=O)C(CNC(=O)C(CNC(=O)CNC(=O)c5cccc(O)c5O)NC(=O)c5cccc(O)c5O)NC(=O)c5cccc(O)c5O)nn4)CC3)c(F)c2)C(=O)O1` (configuration not stated): the MIC in data set [11] is above 64 µM; in [12], 16 µM (≈ 18 µg/mL).

Take `CC(=O)NCC1CN(c2ccc(N3CCN(C(=O)COn4cc(CNC(=O)C(CCCCNC(=O)c5cccc(O)c5O)NC(=O)c5cccc(O)c5O)nn4)CC3)c(F)c2)C(=O)O1` (configuration not stated): in [10], the MIC was above 64 µM.

As for `CC(=O)NC[C@H]1CN(c2ccc(-c3ccc4c(c3)CC3(C(=O)NCNC3=O)C3CCCCC43)c(F)c2)C(=O)O1` (some centres not stated), the MIC in [1] is 4 µg/mL (≈ 7.48 µM); in data set [2] it was 8 µg/mL; in data set [3], above 32 µg/mL; in [4], 8 µg/mL; in [5], above 32 µg/mL; in data set [6], 8 µg/mL.

For the molecule `NS(=O)(=O)c1ccc(N2C[C@H](CO)OC2=O)cc1`, in data set [13], the MIC was determined as 16 µg/mL (≈ 58.8 µM).

Regarding `CC(C)(C)Oc1ccc(C[C@H](NC(=O)OCC2c3ccccc3-c3ccccc32)C(=O)N[C@@H](Cc2ccccc2)[C@@H]2CN(c3ccc(N4CCOCC4)c(F)c3)C(=O)O2)cc1`, the MIC in data set [9] was determined as 12.5 µg/mL (≈ 15.1 µM).

Consider `O=C1O[C@@H](CO)CN1c1ccc(-c2ccc3c(c2)CC2(C(=O)NCNC2=O)C2CCCCC32)c(F)c1` (some centres not stated), for which the MIC was below 1 µg/mL in data set [1]; 2 µg/mL in [2]; 32 µg/mL (≈ 64.8 µM) in data set [3]; 2 µg/mL in data set [4]; 32 µg/mL (≈ 64.8 µM) in data set [5]; 4 µg/mL in data set [6].

Turning to `CC(=O)NCC1CN(c2ccc(N3CCN(C(=O)CCOCCOCn4cc(CNC(=O)C(CNC(=O)C(CNC(=O)CNC(=O)c5cccc(O)c5O)NC(=O)c5cccc(O)c5O)NC(=O)c5cccc(O)c5O)nn4)CC3)c(F)c2)C(=O)O1` (configuration not stated), the figures for the MIC in data set [11] and in data set [12] were above 64 µM and 64 µM (≈ 76.8 µg/mL), respectively.

For `CC(=O)NC[C@H]1CN(c2ccc(C(C)=O)cc2)C(=O)O1` [DUP-721], the MIC in [14] and in [15] was 4 µg/mL (≈ 14.5 µM) in each case.

Regarding `CC(=O)NC[C@H]1CN(c2ccc(N3CCOCC3)c(F)c2)C(=O)O1` [LINEZOLID], the MIC in data set [16] is 130 µg/mL; in data set [1], 2 µg/mL (≈ 5.93 µM); in data set [3] it was above 32 µg/mL; in data set [4] it was 2 µg/mL; in [9], 1.56 µg/mL (≈ 4.62 µM); in data set [17], 36 µg/mL. For the same molecule, the MIC is 11 µg/mL (≈ 32.6 µM) in data set [18], above 32 µg/mL in data set [5], 3.1 µg/mL (≈ 9.19 µM) in data set [19] and 4 µM (≈ 1.35 µg/mL) in data set [12].
